{
  "source": "patent US9817000B2",
  "about": "“Method for identifying compounds that modulate a T2R taste receptor” (The Regents of the University of California, priority 1999, dated 2017)",
  "key": {"mGluR1 receptor": {"biological_target": "T1, mGluR1 receptor (Rattus norvegicus, UniProt P23385)", "T1 construct": "expressed in transfected cells; host or cells: HEK-293 cells containing Gα15", "T1 sequence (P23385 19-1199)": "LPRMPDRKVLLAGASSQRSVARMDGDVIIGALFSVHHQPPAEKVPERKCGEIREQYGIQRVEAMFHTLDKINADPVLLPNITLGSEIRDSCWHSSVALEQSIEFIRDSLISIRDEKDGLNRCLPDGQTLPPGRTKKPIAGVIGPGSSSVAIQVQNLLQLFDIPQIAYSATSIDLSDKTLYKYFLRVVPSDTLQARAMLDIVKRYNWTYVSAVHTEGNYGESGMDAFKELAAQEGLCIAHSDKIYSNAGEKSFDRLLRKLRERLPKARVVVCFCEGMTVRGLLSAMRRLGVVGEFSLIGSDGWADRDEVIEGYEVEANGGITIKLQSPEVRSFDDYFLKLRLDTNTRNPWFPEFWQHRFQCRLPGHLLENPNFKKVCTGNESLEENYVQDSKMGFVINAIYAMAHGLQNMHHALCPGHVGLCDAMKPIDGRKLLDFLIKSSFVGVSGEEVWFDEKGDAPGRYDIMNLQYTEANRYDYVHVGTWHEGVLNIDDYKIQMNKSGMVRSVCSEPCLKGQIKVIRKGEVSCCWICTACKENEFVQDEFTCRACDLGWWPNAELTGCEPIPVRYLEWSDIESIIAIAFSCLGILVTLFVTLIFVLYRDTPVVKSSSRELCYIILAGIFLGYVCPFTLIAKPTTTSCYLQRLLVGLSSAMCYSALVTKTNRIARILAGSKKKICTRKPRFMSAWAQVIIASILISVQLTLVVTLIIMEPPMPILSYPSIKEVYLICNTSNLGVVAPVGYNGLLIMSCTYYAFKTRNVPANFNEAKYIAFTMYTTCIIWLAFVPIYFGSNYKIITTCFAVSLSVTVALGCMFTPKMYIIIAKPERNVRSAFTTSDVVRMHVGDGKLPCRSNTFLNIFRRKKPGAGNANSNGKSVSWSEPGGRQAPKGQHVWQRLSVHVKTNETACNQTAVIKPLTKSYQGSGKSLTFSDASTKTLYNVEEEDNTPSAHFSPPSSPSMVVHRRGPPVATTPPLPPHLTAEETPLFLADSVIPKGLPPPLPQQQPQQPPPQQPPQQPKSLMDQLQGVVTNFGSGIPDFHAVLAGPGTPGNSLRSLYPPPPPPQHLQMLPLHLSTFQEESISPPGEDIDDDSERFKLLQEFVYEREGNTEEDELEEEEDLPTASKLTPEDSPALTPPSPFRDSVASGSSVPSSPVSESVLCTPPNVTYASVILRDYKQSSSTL", "assay": "FURA-2 [Ca2+]i imaging in HEK-293 cells with Gα15 and mGluR1 receptor", "format": "cell-based", "conditions": "20 μM", "source_text": "(§1) In this system, receptor activation leads to increases in intracellular calcium [Ca2+]i, which can be monitored at the single cell level using the FURA-2 calcium-indicator dye (Tsien et al., Cell Calcium 6:145-157 (1985)). To test and optimize Gα15 coupling, two different GPCRs, a Gαi-coupled μ-opioid receptor (Reisine, Neuropharm. 34:463-472 (1995)) and a Gαq-coupled mGluR1 receptor (Masu et al., Nature 349:760-765 (1991)), were used. Transfection of these receptors into HEK-293 cell produced robust, agonist-selective, and Gα15-dependent Ca^2+ responses (FIG. 1)."}, "mT2R5": {"biological_target": "T2, mT2R5 (Mus musculus, UniProt Q9JKT4)", "T2 construct": "expressed in transfected cells; host or cells: modified HEK-293 cells (PEAKrapid) expressing Gα15; pEAK10 vector", "T2 sequence (Q9JKT4 1-300)": "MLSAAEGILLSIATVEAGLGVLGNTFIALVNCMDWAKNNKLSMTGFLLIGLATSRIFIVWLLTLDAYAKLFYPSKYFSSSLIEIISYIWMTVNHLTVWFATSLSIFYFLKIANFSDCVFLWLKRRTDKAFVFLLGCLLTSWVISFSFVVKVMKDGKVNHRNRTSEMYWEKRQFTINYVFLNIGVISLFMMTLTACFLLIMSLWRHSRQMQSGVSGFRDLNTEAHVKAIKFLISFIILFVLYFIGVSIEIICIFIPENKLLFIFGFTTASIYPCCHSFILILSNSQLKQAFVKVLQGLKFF", "assay": "FURA-2 [Ca2+]i imaging in HEK-293 cells expressing Gα15 and rho-mT2R5 (taster, DBA/2 allele)", "format": "cell-based", "source_text": "as §1\n(§2) A number of studies have shown that many GPCRs, in particular sensory receptors, require specific “chaperones” for maturation and targeting through the secretory pathway (Baker et al., Embo J 13:4886-4895 (1994); Dwyer et al., Cell 93:455-466 (1998)). Recently, Krautwurst et al. (Cell 95:917-926 (1998)) generated chimeric receptors consisting of the first 20 amino acids of rhodopsin and various rodent olfactory receptors. These were targeted to the plasma membrane and functioned as odorant receptors in HEK-293 cells. To determine whether rhodopsin sequences can also help target T2Rs to the plasma membra, rhodopsin-T2R chimeras (rho-T2Rs) were constructed. […] Similar results were obtained with 11 human and 16 rodent T2Rs (see below). To further enhance the level of T2R expression, rho-T2Rs were placed under the control of a strong EF-1α promoter, and introduced as episomal plasmids into modified HEK-293 cells expressing Gα15 (pEAKrapid cells).\n(§3) A bridge overlap PCR extension technique was used to generate rho-T2R chimeras, which contain the first 39 amino acids of bovine rhodopsin in frame with human and rodent T2R coding sequences (Mehta and Singh, Biotechniques 26:1082-1086 (1999). All receptors were cloned into a pEAK10 mammalian expression vector (Edge Biosystems, MD). Modified HEK-293 cells (PEAK^rapid cells; Edge BioSystems, MD) were grown and maintained at 37° C. in UltraCulture medium (Bio Whittaker) supplemented with 5% fetal bovine serum, 100 μg/ml Gentamycin sulphate (Fisher), 1 μg/ml Amphotericin B and 2 mM GlutaMax I (Lifetechnologies). For transfection, cells were seeded onto matrigel coated 24-well culture plates or 35 mm recording chambers. After 24 h at 37° C., cells were washed in OptiMEM medium (Lifetechnologies) and transfected using LipofectAMINE reagent (Lifetechnologies). Transfection efficiencies were estimated by co-transfection of a GFP reporter plasmid, and were typically >70%. Immunofluoresence staining, and activity assays were performed 36-48 h after transfection.\n(§4) Transfected cells were washed once in Hank's balanced salt solution with 1 mM sodium pyruvate and 10 mM HEPES, pH 7.4 (assay buffer), and loaded with 2 μM FURA-2 AM (Molecular Probes) for 1 h at room temperature. The loading solution was removed and cells were incubated in 200 μl of assay buffer for 1 h to allow the cleavage of the AM ester. For most experiments, 24-well tissue culture plates containing cells expressing a single rho-T2R were stimulated with 200 μl of a 2× tastant solution (see next section). [Ca^2+]i changes were monitored using a Nikon Diaphot 200 microscope equipped with a 10×/0.5 fluor objective with the TILL imaging system (T.I.L.L Photonics GmbH). Acquisition and analysis of the fluorescence images used TILL-Vision software. Generally, [Ca^2+]i was measured for 80-120 s by sequentially illuminating cells for 200 ms at 340 nm and 380 nm and monitoring the fluorescence emission at 510 nm using a cooled CCD camera. The F340/F380 ratio was analyzed to measure [Ca^2+]i.\n(§5) Kinetics of activation and deactivation were measured using a bath perfusion system. Cells were seeded onto a 150 μl microperfusion chamber, and test solutions were pressure-ejected with a picospritzer apparatus (General Valve, Inc.). Flow-rate was adjusted to ensure complete exchange of the bath solution within 4-5 s. […]"}, "[1]": {"biological_target": "T3, mT2R5 coupling to gustducin (Mus musculus, UniProt Q9JKT4)", "T3 construct": "infectious Bacmid containing rhodopsin tagged mT2R5 (DBA/2-allele) was produced using the Bac-to-Bac system; rhodopsin tag (rho); made in house; host or cells: insect larval cells infected with recombinant Bacmid (Bac-to-Bac baculovirus system); membrane preparation", "T3 sequence (Q9JKT4 1-300)": "T2 sequence (Q9JKT4 1-300)", "assay": "Tastant-induced GTPγS binding to gustducin with insect cell membranes containing rho-mT2R5", "format": "biochemical", "conditions": "1 mM", "protocol": "To investigate the selectivity of T2R-G-protein coupling, mT2R5 was chosen for study because its activation by cycloheximide recapitulates mouse taste responses. Rho-tagged mT2R5 and gustducin were prepared using a baculovirus expression system. mT2R5-containing membranes were incubated with various purified G-proteins, including gustducin, and measured tastant-induced GTP-γS binding (Hoon et al., Biochem J 309:629-636 (1995)). Specifically, infectious Bacmid containing rhodopsin tagged mT2R5 (DBA/2-allele) was produced using the Bac-to-Bac system (Lifetechnologies, MD). Insect larval cells were infected for 60 h with recombinant Bacmid and membranes were prepared as described previously (Ryba and Tirindelli, J Biol Chem, 270:6757-6767 (1995)). Peripheral proteins were removed by treatment with 8 M urea and membranes were resuspended in 10 mM HEPES pH7.5, 1 mM EDTA and 1 mM DTT. The expression of rho-mT2R5 was assessed by Western blot using mAb B6-30 and quantitated by comparison with known amounts of rhodopsin. Approximately 300 pmol of rho-mT2R5 could be obtained from 2×10^8 infected cells. Gustducin and Gβ1γ8 heterodimers were isolated as described previously (Hoon et al., Biochem J 309:629-636 (1995); Ryba and Tirindelli, J Biol Chem, 270:6757-6767 (1995)). Receptor-catalyzed exchange of GDP for GTPγS on gustducin and other G-protein α-subunits was measured in the presence of 10 nM rho-mT2R5, 100 μM GDP, and 20 μM Gβ1γ8. All measurements were made at 15-minute time points, and reflect the initial rate of GTPγS binding."}, "μ opioid receptor": {"biological_target": "T4, μ opioid receptor (Homo sapiens, UniProt P35372)", "T4 construct": "expressed in transfected cells; host or cells: HEK-293 cells containing Gα15", "T4 sequence (P35372 whole entry, species assumed)": "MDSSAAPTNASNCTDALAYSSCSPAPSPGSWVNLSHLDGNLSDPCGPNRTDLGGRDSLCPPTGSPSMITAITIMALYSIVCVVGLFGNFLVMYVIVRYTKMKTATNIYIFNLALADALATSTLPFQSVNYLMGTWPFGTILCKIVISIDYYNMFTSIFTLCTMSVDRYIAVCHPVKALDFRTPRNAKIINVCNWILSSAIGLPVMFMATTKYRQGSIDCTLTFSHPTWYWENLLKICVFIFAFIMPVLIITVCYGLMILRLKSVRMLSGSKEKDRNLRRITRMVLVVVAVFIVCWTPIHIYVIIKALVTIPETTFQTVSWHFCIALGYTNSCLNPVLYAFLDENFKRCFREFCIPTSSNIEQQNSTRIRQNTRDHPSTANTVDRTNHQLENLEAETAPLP", "assay": "FURA-2 [Ca2+]i imaging in HEK-293 cells with Gα15 and μ opioid receptor", "format": "cell-based", "conditions": "10 μM", "source_text": "as §1"}, "mT2R8": {"biological_target": "T5, mT2R8 (Mus musculus, UniProt Q9JKT3)", "T5 construct": "expressed in transfected cells; host or cells: HEK-293 cells (PEAKrapid) expressing Gα15", "T5 sequence (Q9JKT3 1-297)": "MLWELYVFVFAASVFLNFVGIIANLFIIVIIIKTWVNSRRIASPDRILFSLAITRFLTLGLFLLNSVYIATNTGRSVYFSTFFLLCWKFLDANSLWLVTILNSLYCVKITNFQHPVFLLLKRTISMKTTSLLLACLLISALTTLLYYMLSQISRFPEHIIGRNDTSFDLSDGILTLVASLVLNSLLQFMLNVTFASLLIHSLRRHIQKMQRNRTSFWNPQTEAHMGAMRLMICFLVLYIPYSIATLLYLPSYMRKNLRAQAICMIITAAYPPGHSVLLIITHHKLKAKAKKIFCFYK", "assay": "FURA-2 [Ca2+]i imaging in HEK-293 cells expressing Gα15 and rho-mT2R8", "format": "cell-based", "conditions": "high concentrations", "source_text": "as §1, §2, §3\nas §4, with “For most experiments, 24-well tissue culture plates containing cells expressing a single rho-T2R were stimulated with 200 μl of a 2× tastant solution (see next section).” left out\nKinetics of activation and deactivation were measured using a bath perfusion system. […]"}, "hT2R4": {"biological_target": "T6, hT2R4 (Homo sapiens, UniProt Q9NYW5)", "T6 construct": "Full-length hT2Rs were isolated by PCR amplification of genomic DNA; expressed in transfected cells; host or cells: HEK-293 cells (PEAKrapid) expressing Gα15", "T6 sequence (Q9NYW5 1-299)": "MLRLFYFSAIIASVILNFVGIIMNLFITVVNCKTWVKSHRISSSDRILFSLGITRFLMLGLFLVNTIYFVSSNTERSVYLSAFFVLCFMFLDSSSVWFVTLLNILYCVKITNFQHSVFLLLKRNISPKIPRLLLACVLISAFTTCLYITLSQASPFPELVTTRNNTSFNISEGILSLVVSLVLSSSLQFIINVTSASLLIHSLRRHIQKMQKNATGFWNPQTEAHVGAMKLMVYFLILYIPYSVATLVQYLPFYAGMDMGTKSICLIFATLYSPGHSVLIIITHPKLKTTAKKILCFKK", "assay": "FURA-2 [Ca2+]i imaging in HEK-293 cells expressing Gα15 and rho-hT2R4", "format": "cell-based", "conditions": "high concentrations", "source_text": "as §1, §2, §3, §4, §5"}},
  "data": [
    {"smiles": "N[C@@]1(C(=O)O)CC[C@H](C(=O)O)C1", "note": "(racemic) [ACPD, trans (±) 1-amino-1,3 cyclopentane dicarboxylic acid]", "values": [
      {"measurement": "[Ca2+]i response", "setting": "mGluR1 receptor", "result": "increase in [Ca2+]i"}
    ]},
    {"smiles": "O=C1NS(=O)(=O)c2ccccc21", "note": "[saccharin]", "values": [
      {"measurement": "[Ca2+]i response to tastant", "setting": "mT2R5; 10 mM", "result": "not observed"},
      {"measurement": "gustducin activation", "setting": "[1]", "result": "not"}
    ]},
    {"smiles": "CC(=O)OC[C@H]1O[C@@](COC(C)=O)(O[C@H]2O[C@H](COC(C)=O)[C@@H](OC(C)=O)[C@H](OC(C)=O)[C@H]2OC(C)=O)[C@@H](OC(C)=O)[C@@H]1OC(C)=O", "note": "[sucrose octaacetate]", "values": [
      {"measurement": "[Ca2+]i response to tastant", "setting": "mT2R5; 3 mM", "result": "not observed"},
      {"measurement": "gustducin activation", "setting": "[1]", "result": "not"}
    ]},
    {"smiles": "C=C[C@H]1C[N@@]2CC[C@H]1C[C@H]2[C@H](O)c1ccnc2ccc(OC)cc12", "note": "[quinine]", "values": [
      {"measurement": "gustducin activation", "setting": "[1]", "result": "not"}
    ]},
    {"smiles": "COc1cc2c(cc1OC)[C@@]13CCN4CC5=CCO[C@H]6CC(=O)N2[C@H]1[C@H]6[C@H]5C[C@H]43", "note": "[brucine]", "values": [
      {"measurement": "[Ca2+]i response to tastant", "setting": "mT2R5; 5 mM", "result": "not observed"},
      {"measurement": "gustducin activation", "setting": "[1]", "result": "not"}
    ]},
    {"smiles": "NC(=S)Nc1ccccc1", "note": "[phenyl thiocarbamide]", "values": [
      {"measurement": "[Ca2+]i response to tastant", "setting": "mT2R5; 3 mM", "result": "not observed"},
      {"measurement": "gustducin activation", "setting": "[1]", "result": "not"}
    ]},
    {"smiles": "O=C(O)/C=C/c1ccc(O)c(O)c1", "note": "[caffeic acid]", "values": [
      {"measurement": "[Ca2+]i response to tastant", "setting": "mT2R5; 2 mM", "result": "not observed"}
    ]},
    {"smiles": "CN1[C@@H]2CC[C@H]1C[C@@H](OC(=O)C(CO)c1ccccc1)C2", "note": "(stereo partly shown) [atropine]", "values": [
      {"measurement": "[Ca2+]i response to tastant", "setting": "mT2R5; 5 mM", "result": "not observed"},
      {"measurement": "gustducin activation", "setting": "[1]", "result": "not"}
    ]},
    {"smiles": "C[C@@H](NC(=O)[C@@H](N)Cc1ccc(O)cc1)C(=O)NCC(=O)N(C)[C@@H](Cc1ccccc1)C(=O)NCCO", "note": "[DAMGO]", "values": [
      {"measurement": "[Ca2+]i response", "setting": "μ opioid receptor", "result": "increase in [Ca2+]i"}
    ]},
    {"smiles": "CCCc1cc(=O)[nH]c(=S)[nH]1", "note": "[6-n-propyl thiouracil]", "values": [
      {"measurement": "receptor activation", "setting": "mT2R8", "result": "activated"},
      {"measurement": "[Ca2+]i response to tastant", "setting": "mT2R5; 10 mM", "result": "not observed"},
      {"measurement": "[Ca2+]i response", "setting": "hT2R4", "result": "also responded"},
      {"measurement": "gustducin activation", "setting": "[1]", "result": "not"}
    ]},
    {"smiles": "Cn1c(=O)c2c(ncn2C)n(C)c1=O", "note": "[caffeine]", "values": [
      {"measurement": "gustducin activation", "setting": "[1]", "result": "not"}
    ]}
  ]
}
